Data on 1 compound can be found in US20080004281A1, “METHODS FOR THE MODULATION OF CRP BY THE SELECTIVE MODULATION OF PPAR DELTA” (KALYPSYS, INC., priority 2006, published 2008).

The experiment has as its system plasma CRP. Briefly: Plasma CRP in hyperlipidemic obese rhesus macaques, dose-escalating treatment. In kind it is in vivo. The protocol: In the present study, n=6 male obese rhesus macaques were selected for the study and prepared with 4 weeks of diet run-in (week −4 to week 0). At week 0, blood samples were taken in order to determine baseline plasma levels of CRP were measured prior to beginning dosage with Compound 1 as tosylate salt. Dosage began on the same day at 6 mg/kg/day in divided doses, given with food, and continued for four weeks. Dose was subsequently escalated at 4-week intervals to 12 mg/kg/d, 24 mg/kg/d, and finally 48 mg/kg/day. Plasma samples were taken at the close of each 4-week regimen, and a final sample was taken after 4 weeks of washout following discontinuation of dosing.
Quantitative measurements of plasma CRP in each sample taken were made by LabCorp, Inc. (Laboratory Corporation of America) by a multi-calibrator based high sensitivity wide ranged method using a immunoturbidometric assay. The limit of quantitation for the assay was 0.05 mg/dL and the highest point on the calibrator was 32 mg/dL. Mean values as percent change from baseline, and standard deviation as percent change from baseline, were calculated across the group and are shown in Table 2. Mean values for weeks 8-16 fell below the limit of quantiatation, and no data could therefore be reported for the standard deviation.

Regarding `C[C@@H]1CN(c2ccc(OC(F)(F)F)cc2)C[C@H](C)N1S(=O)(=O)c1cccc2c1CC(C(=O)O)C2` (stereo partly drawn) [Compound 1, 4-[cis-2,6-Dimethyl-4-(4-trifluoromethoxy-phenyl)-piperazine-1-sulfonyl]-indan-2-carboxylic acid], the “plasma CRP change” value (over 16 weeks of dose-escalating treatment, hyperlipidemic rhesus macaques) is listed as “significantly reduced”. Also, the “CRP levels during the washout period” value (washout period after 16 weeks of dosing) is “reverted back to the pre-treatment levels”. The Mean Plasma CRP runs as follows: (week 4, 6 mg/kg per day in divided doses with food, as tosylate salt, n=6 male obese rhesus macaques, baseline week 0 = 0.233) 0.166 mg/dL; (week 8, 12 mg/kg per day, as tosylate salt, LOQ 0.05) under 0.05 mg/dL; (week 12, 24 mg/kg per day, as tosylate salt, LOQ 0.05) under 0.05 mg/dL; (week 16, 48 mg/kg per day, as tosylate salt, LOQ 0.05) under 0.05 mg/dL; (week 20, after 4 weeks of washout following discontinuation of dosing (dose 0)) 0.183 mg/dL.
